Molecular target: T1, hyaluronidase (Bos taurus, UniProt Q2YDK3)
T1 construct: purchased Sigma H 3506; host or cells: bovine testes (natural source)
T1 sequence (Q2YDK3 36-553): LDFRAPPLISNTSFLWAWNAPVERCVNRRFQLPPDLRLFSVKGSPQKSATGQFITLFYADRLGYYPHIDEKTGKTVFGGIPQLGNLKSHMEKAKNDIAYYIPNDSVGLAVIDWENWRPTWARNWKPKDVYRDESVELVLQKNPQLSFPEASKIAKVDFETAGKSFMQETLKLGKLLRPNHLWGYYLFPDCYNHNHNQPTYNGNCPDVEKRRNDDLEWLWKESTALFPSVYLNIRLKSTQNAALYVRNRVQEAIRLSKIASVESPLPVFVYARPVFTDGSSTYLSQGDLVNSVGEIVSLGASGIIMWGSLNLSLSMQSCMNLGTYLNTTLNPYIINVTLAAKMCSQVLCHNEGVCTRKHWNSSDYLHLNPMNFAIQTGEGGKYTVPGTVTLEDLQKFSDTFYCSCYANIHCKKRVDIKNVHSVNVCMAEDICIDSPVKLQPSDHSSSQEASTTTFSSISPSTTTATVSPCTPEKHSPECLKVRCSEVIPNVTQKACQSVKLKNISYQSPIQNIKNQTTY
Experiment: Stability in the presence of hyaluronidase (decrease of viscosity)
Format: in vitro ADME, bovine
Method: The stability of Solu-NaHA in the presence of the enzyme specific for hyaluronic acid, hyaluronidase (Sigma, H 3506, Hyaluronidase lyophilized (EC 3.2.1.35) Type I-S, from bovine testes, 608 U/mg solid) was measured by the decrease of the viscosity in time in comparison to blank. The degree of stability (protection against action of hyaluronidase) is defined as a decrease in the viscosity of the NaHA solution upon addition of the enzyme (dose of enzyme—10 U/ml). The control used was 0.1% solution of NaHA without the wrapping polymer (blank). Samples were maintained on a water bath at temperature 37° C. during 5 hrs. Sample made by Visco Star Plus. The decrease in viscosity was estimated in percentage to its initial value. The results in FIG. 5 show the stability of Solu-NaHA prepared with polymer A (NaHA with HPS) or with Polymer B (NaHA with B-790) against the action of hyaluronidase, established as 84-100% vs control 58-63%.
The stability of NaHA in the Solu-NaHA in the presence of hyaluronidase was measured by the decrease of the viscosity over time in comparison to blank. The stability of Solu-NaHA against the action of hyaluronidase was 70-90% vs 40-45% in blank (0.5% solution of NaHA).
The degree of stability of NaHA was measured as described in Example 7 above. The control used was 0.5% solution of NaHA without any polymer (blank). Samples were maintained on a water bath at temperature 37° C. during 5 hrs. Measurement of viscosity was made by Visco Star Plus. Decrease in viscosity is estimated in percentage relative to its initial value. It is established, that protection of Solu-NaHA with polymer A (HPS) against action of hyaluronidase gives a viscosity of 67-70% vs the control protection of 20-27%.

stability against the action of hyaluronidase (0.1% NaHA, enzyme 10 U/ml, 37° C., up to 5 hrs, viscosity in percentage to initial value)	viscosity under enzyme activity, percentage relative to initial value (0.5% NaHA, 37° C., 5 hrs)	stability against the action of hyaluronidase (0.5% NaHA, viscosity over time versus blank (FIG. 6))	Substance
58-63%			sodium hyaluronate [0.1% solution of NaHA]
	20-27%	40-45%	sodium hyaluronate [0.5% solution of NaHA]

From US20060228419A1, “Solvent-free process for preparation of hydrophilic dispersions of nanoparticles of inclusion complexes” (SoluBest Ltd., priority 2005, published 2006)
